Reference: US7767204B2, “Method and composition for protecting neuronal tissue from damage induced by elevated glutamate levels” (Yeda Research And Development Co. Ltd., priority 2002, dated 2010)

Tests used:
[1] = test system: rat blood plasma glutamate (GOT, GPT); assay: Glutamate conversion in rat blood plasma by pyruvate and oxaloacetate analogues; format: biochemical; conditions: for % of remaining Glutamate: rat blood plasma, 1 mM of each co-substrate
Protocol: A number of glutamate modifying enzymes were tested for their ability to enhance glutamate conversion in rat blood plasma. Table 1 below summarizes the results obtained with 1 mM of each co-substrate.

[2] = Blood concentrations of pyruvate and oxaloacetate during intravenous infusion; format: in vivo, rat; conditions: intravenous 50 μMoles/min each for 30 min
Protocol: Glutamate analyses of in-vivo treated blood samples were carried out according to the fluorometric procedure of Graham and Aprison [(1996) Anal. Biochem. 15(3):487-97]. Pyruvate concentration determination—Blood Pyruvate concentration was measured using the Sigma Diagnostics Pyruvate reagents according to manufacturer's instructions. In brief: the procedure utilizes lactate dehydrogenase which in the presence of excess NADH catalyzes almost complete conversion of pyruvate into lactate with a concomitant production of NAD. The reduction of absorbance at 340 nm due to the oxidation of NADH into NAD is the measure of the amount of pyruvate originally present.
(§1) Oxaloacetate concentration determination—Blood oxaloacetate concentration was measured using the same procedure as for pyruvate but using malate dehydrogenase which catalyses the conversion of oxaloacetate into malate along with the oxidation of NADH into NAD.
Results—The effect on glutamate levels via pyruvate and oxaloacetate administration through an intravenous catheter at a rate of 50 μMoles/minute for a duration of 30 minutes was determined. Blood concentrations of glutamate, pyruvate and oxaloacetate were monitored in parallel. […] However, as soon as the administration of pyruvate and oxaloacetate was stopped, their blood concentration decreased and the glutamate level increased concomitantly.

[3] = test system: brain to blood glutamate efflux; assay: Brain-to-blood [3H]Glu efflux after intracerebroventricular injection; conditions: first 10 minutes after injection in lateral ventricle, n=8
Protocol: Catheterization of the tail vein (for drug injections) and of the femoral vein (for blood aliquot withdrawals) was performed using PE10 polyethylene tubing linked to PE50 polyethylene tubing. […] A 27G steel cannula was implanted in the right lateral ventricle using the following stereotactic coordinates: 0.8 mm posterior to bregma; lateral 1.4 mm; depth: 4 mm from skull or 3.5 mm from dura. A [^3H] glutamate solution in phosphate buffered saline (PBS) was injected into the lateral ventricle through the implanted cannula using a Hamilton syringe (25 μl) connected to PE20 tube filled with solution. A total volume of 11 μl was injected within approximately 2 minutes.
For radioactivity determination, 50 μl blood samples were diluted in 500 μl H2O and added to 16 ml of scintillation fluid. Measured cpms were corrected for quenching as determined by comparing the measured cpms of a set volume of [^3H] glutamate added to water or to diluted blood. Body temperature was maintained with a lamp and rectal temperature was monitored. Rat pulse rate was monitored using a Periflux system 500 and a laser Doppler probe placed onto the skull.
Intravenous injections of pyruvate and oxaloacetate diluted in phosphate buffered saline (PBS) were carried out at a rate of 0.05 ml/minute for 30 minutes with a Pharmacia pump P-1.

[4] = Glutamate life time in blood after bolus intravenous injection of labelled glutamate; format: in vivo, rat
Protocol: Results—Glutamate normalization may be accomplished by estimating the rate of disappearance of [^14C] glutamate from the blood, by methodology detailed in the preceding example. Administration of a bolus intravenous injections of 11 μCi radio-labeled glutamate in the absence or presence of non-radioactive glutamate was conducted and the presence of radioactivity in blood was monitored over time (FIG. 19).

[5] = test system: glutamate in blood cells and plasma (GPT, GOT, 2-ketoglutarate dehydrogenase, GDH); assay: In-vitro glutamate levels and conversion in blood cell fraction and plasma; format: biochemical, rat; conditions: for blood cell (cellular) glutamate levels / plasma glutamate levels: incubation of blood with GDH co-factors in vitro
Protocol: (§2) Induction of rat blood glutamate metabolism and glutamate concentration determination—Fresh rat blood samples incubated at 37° C. were supplemented every 15 minutes or as noted with oxaloacetate and/or pyruvate (final concentration of 1 mM at pH 7.4).
(§3) At indicated time intervals, 150 μl aliquots were removed and centrifuged at 1,300×g for 7 minutes. Plasma volume (i.e., supernatant) was measured and was combined with identical volume of perchloric acid (PCA) to precipitate protein content. Precipitation was allowed to proceed for 10 minutes on ice and thereafter samples were centrifuged. Cell pellet (i.e., erythrocytes, lymphocytes and platelets) was lysed by osmotic shock following resuspension in double distilled water up to a final volume of 150 μl. A second step of protein precipitation was then performed by adding 150 μl of PCA [[…]]. Plasma and cell PCA-precipitated fractions were centrifuged at 16,000×g for 10 minutes and pellets were discarded.
Supernatant glutamate concentration was determined according to the fluorometric procedure of Graham and Aprison [(1996) Anal. Biochem. 15(3):487-97]. In brief: 20 μl aliquot of PCA precipitated fraction was added to 480 μl HG buffer containing 15 u of glutamate dehydrogenase in 0.2 mM NAD, 0.3 M glycine, 2.4% hydrazine hydrate adjusted to pH 6.8 with H2SO4 [1 N] and incubated at room temperature for 30-45 minutes. Fluorescence was measured at 460 nm following excitation at 350 nm. All measurements were performed alongside a glutamate standard curve at a glutamate concentration range of 0-6 μM. All glutamate measurements were performed in duplicates.
Results—Glutamate levels were therefore determined individually in blood cell fractions (closed symbols) and in plasma (open symbols), following repeated additions (arrows) of 1 mM pyruvate (squares), 1 mM oxaloacetate (triangles) or of a mixture of 1 mM pyruvate and 1 mM oxaloacetate (diamonds) (FIG. 2A). Glutamate determination was conducted as described in Example 1.

[6] = test system: blood and plasma glutamate (GOT); assay: Effect of diethyloxaloacetate on glutamate in rat blood and plasma in vitro; format: biochemical; conditions: 10 mM
Protocol: Thereafter, the effect of diethyloxaloacetate on Glutamate levels was assessed. Glutamate levels were determined in rat blood samples upon incubation in the absence or presence of 10 mM diethyloxaloacetate. […] FIG. 31 represents the amount of plasma glutamate converted probably into α-ketoglutarate following the activation of GOT as a function of time by the presence of 10 mM diethyloxaloacetate.

[7] = Conversion of diethyloxaloacetate into oxaloacetate in rat blood and tissue homogenates; format: in vitro ADME; conditions: 10 mM diethyloxaloacetate
Protocol: as §1
The use of an oxaloacetate prodrug, which following in vivo administration, is converted to oxaloacetate, may obviate this problem. Thus the commercially available oxaloacetate diethylester (FIG. 27B) was considered in this context. Conversion of oxaloacetate diethylester into oxaloacetate following incubation with tissue homogenates derived from rat liver, colon, ileum, jejunum and duodenum was investigated.

[8] = test system: blood glutamate (blood resident GPT and GOT); assay: In-vitro scavenging of glutamate in whole rat blood by activation of resident enzymes; format: biochemical; conditions: 37° C., 1 mM co-substrate and/or 2.5 u/ml GPT
Protocol: as §2, §3
Supernatant glutamate concentration was determined according to the fluorometric procedure of Graham and Aprison [(1996) Anal. Biochem. 15(3):487-97]. […] Fluorescence was measured at 460 nm following excitation at 350 nm. […]

[9] = biological target: T1, glutamate, 2-ketoglutarate (Escherichia coli, UniProt P00509); conditions: cited from earlier work
T1 sequence (P00509 whole entry, looked up): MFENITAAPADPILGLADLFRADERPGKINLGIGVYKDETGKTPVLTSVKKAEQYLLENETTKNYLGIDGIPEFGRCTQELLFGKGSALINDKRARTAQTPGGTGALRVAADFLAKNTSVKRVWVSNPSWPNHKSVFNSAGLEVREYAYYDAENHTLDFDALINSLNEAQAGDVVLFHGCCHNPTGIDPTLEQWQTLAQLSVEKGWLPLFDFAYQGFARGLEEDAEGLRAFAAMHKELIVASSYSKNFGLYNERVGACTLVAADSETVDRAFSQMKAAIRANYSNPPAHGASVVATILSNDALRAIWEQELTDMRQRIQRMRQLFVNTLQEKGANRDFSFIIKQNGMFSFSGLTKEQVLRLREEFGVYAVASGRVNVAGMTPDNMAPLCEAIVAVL

[10] = normal blood glutamate concentration of 209 μM
[11] = rat blood in vitro, 24 hours, 37° C.

Molecule: α-Isocaproate
- % of remaining Glutamate [1]: 83%

Molecule: O=C(O)C(=O)CO [β-Hydroxypyruvate]
- % of remaining Glutamate [1]: 74%

Molecule: O=CCCC(=O)O [Succinic semialdehyde]
- % of remaining Glutamate [1]: 78%

Molecule: O=CC(=O)O [Glyoxalate]
- % of remaining Glutamate [1]: 74%

Molecule: O=C(O)CC(=O)C(=O)O [Oxaloacetate]
- blood concentration built up [2]: 450 µM

Molecule: N[C@@H](CCC(=O)O)C(=O)O [[^3H] glutamate, glutamate]
- rate of appearance of radioactivity in blood, of the amount input in the brain per minute [3]: 0.8%±0.1
- glutamate eliminated per minute ([4]; blood glutamate 3.4 mM): 69 nmoles glutamate/ml blood
- elimination half-life in blood ([4]; blood glutamate 3.4 mM after intraperitoneal 2 mMoles of glutamate): 24.6 min
- elimination rate constant ([4]; normal blood glutamate concentration): 0.035 min⁻¹
- elimination half-life in blood [4, 10]: 19.3 min
- glutamate eliminated per minute [4, 10]: 5.4 nmoles of glutamate/ml blood

Molecule: CCC(=O)C(=O)O [α-Ketobutyrate]
- decrease in plasma glutamate levels ([1]; 0.5 mM, rat plasma): no effect
- glutamate degradation as compared to basal glutamate levels ([1]; 2 mM, rat plasma): 40%
- conversion of glutamate in the presence of oxaloacetate ([1]; in the presence of 0.25 mM oxaloacetate): enhanced conversion of glutamate
- % of remaining Glutamate [1]: 97%

Molecule: CC(C)C[C@H](N)C(=O)O [Leucine]
- blood cell (cellular) glutamate levels [5]: did not significantly alter glutamate levels
- plasma glutamate levels [5]: increased plasma glutamate levels

Molecule: O=C(O)C(=O)Cc1ccccc1 [β-Phenylpyruvate]
- % of remaining Glutamate [1]: 76%

Molecule: NC(=O)c1ccc[n+]([C@@H]2O[C@H](COP(=O)([O-])OP(=O)(O)OC[C@H]3O[C@@H](n4cnc5c(N)ncnc54)[C@H](O)[C@@H]3O)[C@@H](O)[C@H]2O)c1 [NAD]
- blood cell (cellular) glutamate levels [5]: decrease in blood cell glutamate levels
- plasma glutamate levels [5]: increase in plasma glutamate levels

Molecule: CCOC(=O)CC(=O)C(=O)OCC [diethyloxaloacetate]
- glutamate blood levels [6, 11]: did not affect glutamate blood levels
- plasma glutamate ([6]; rat blood plasma in vitro, following 9 hours incubation): significant increase in plasma glutamate
- increase in basal oxaloacetate levels ([7]; liver and sections of rat gut mucosa, within 15 minutes): 400%
- increase of blood oxaloacetate [7, 11]: 240%

Molecule: Cc1ncc(COP(=O)(O)O)c(C=O)c1O [pyridoxal phosphate]
- enhancement of pyruvate and oxaloacetate-mediated decrease in cellular or plasma glutamate ([5]; 15 μM pyridoxal phosphate): No significant effects

Molecule: Nc1ncnc2c1ncn2[C@@H]1O[C@H](COP(=O)(O)OP(=O)(O)O)[C@@H](O)[C@H]1O [ADP]
- blood cell (cellular) glutamate levels [5]: did not significantly alter glutamate levels
- plasma glutamate levels [5]: increased plasma glutamate levels

Molecule: CC(=O)C(=O)O [Pyruvate]
- blood concentration built up [2]: 450 µM

B1: GPT: glutamate pyruvate transaminase enzyme added at 2.5 u/ml (protein, UniProt P24298 2-496, looked up)
Alanine aminotransferase 1: ASSTGDRSQAVRHGLRAKVLTLDGMNPRVRRVEYAVRGPIVQRALELEQELRQGVKKPFTEVIRANIGDAQAMGQRPITFLRQVLALCVNPDLLSSPNFPDDAKKRAERILQACGGHSLGAYSVSSGIQLIREDVARYIERRDGGIPADPNNVFLSTGASDAIVTVLKLLVAGEGHTRTGVLIPIPQYPLYSATLAELGAVQVDYYLDEERAWALDVAELHRALGQARDHCRPRALCVINPGNPTGQVQTRECIEAVIRFAFEERLFLLADEVYQDNVYAAGSQFHSFKKVLMEMGPPYAGQQELASFHSTSKGYMGECGFRGGYVEVVNMDAAVQQQMLKLMSVRLCPPVPGQALLDLVVSPPAPTDPSFAQFQAEKQAVLAELAAKAKLTEQVFNEAPGISCNPVQGAMYSFPRVQLPPRAVERAQELGLAPDMFFCLRLLEETGICVVPGSGFGQREGTYHFRMTILPPLEKLRLLLEKLSRFHAKFTLEYS
- blood glutamate levels [8]: significant increase in blood glutamate

B2: E. coli GOT: E. coli glutamate oxaloacetate transaminase, GenBank Accession No. D90731.1 (protein, UniProt P00509 1-396, looked up)
Aspartate aminotransferase: MFENITAAPADPILGLADLFRADERPGKINLGIGVYKDETGKTPVLTSVKKAEQYLLENETTKNYLGIDGIPEFGRCTQELLFGKGSALINDKRARTAQTPGGTGALRVAADFLAKNTSVKRVWVSNPSWPNHKSVFNSAGLEVREYAYYDAENHTLDFDALINSLNEAQAGDVVLFHGCCHNPTGIDPTLEQWQTLAQLSVEKGWLPLFDFAYQGFARGLEEDAEGLRAFAAMHKELIVASSYSKNFGLYNERVGACTLVAADSETVDRAFSQMKAAIRANYSNPPAHGASVVATILSNDALRAIWEQELTDMRQRIQRMRQLFVNTLQEKGANRDFSFIIKQNGMFSFSGLTKEQVLRLREEFGVYAVASGRVNVAGMTPDNMAPLCEAIVAVL
- affinity for 2-ketoglutarate [9]: about 0.2 mM
- affinity for glutamate [9]: about 8 mM
